According to the supplement of paper PMC10307832:

Experiments:
Experiment in all cases: relative viability (nuclei count vs DMSO), 5 days (fraction); higher = more cells survive
Sulindac + Alpelisib = compound: CC1=C(CC(=O)O)c2cc(F)ccc2/C1=C\c1ccc([S+](C)[O-])cc1 [Sulindac] + Cc1nc(NC(=O)N2CCC[C@H]2C(N)=O)sc1-c1ccnc(C(C)(C)C(F)(F)F)c1 [Alpelisib] (partner 2 µM)
Method in brief: (§1)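 Relative viability divides the nuclei count in treated wells by that in vehicle wells. Lung cancer cell lines were seeded in 1536-well plates, dosed by pin tool the next day, and fixed and stained after 5 days in one step with final 0.05% Triton X-100, 1% formaldehyde and 1 ug/ml Hoechst. Dosing was a single drug or a fixed anchor-drug dose plus five library-drug doses (not always all listed) in √10 steps, and values are medians of duplicate plates imaged at 4×.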

5-Fluorouracil + AZD7762 = compound: O=c1[nH]cc(F)c(=O)[nH]1 [5-Fluorouracil] + NC(=O)Nc1cc(-c2cccc(F)c2)sc1C(=O)N[C@H]1CCCNC1 [AZD7762] (partner 0.2 µM)
Method in brief: as §1

[1] = compound: CN[C@@H]1C[C@H]2O[C@@](C)([C@@H]1OC)n1c3ccccc3c3c4c(c5c6ccccc6n2c5c31)C(=O)NC4 [Staurosporine] + Cc1cc(Nc2cc(N3CCN(C)CC3)nc(Sc3ccc(NC(=O)C4CC4)cc3)n2)n[nH]1 [Tozasertib] (partner 0.1 µM)
Method in brief: as §1

[2] = compound: O=c1[nH]cc(F)c(=O)[nH]1 [5-Fluorouracil] + CC1(C)CCC(c2ccc(Cl)cc2)=C(CN2CCN(c3ccc(C(=O)NS(=O)(=O)c4ccc(N[C@H](CCN5CCOCC5)CSc5ccccc5)c(S(=O)(=O)C(F)(F)F)c4)cc3)CC2)C1 [Navitoclax] (partner 0.5 µM)
Method in brief: as §1

Row | Cell Line | relative viability (Sulindac + Alpelisib; first compound 0.08 µM) | relative viability (Sulindac + Alpelisib; first compound 0.253 µM) | relative viability (Sulindac + Alpelisib; first compound 0.8 µM) | relative viability (Sulindac + Alpelisib; first compound 2.53 µM) | relative viability (Sulindac + Alpelisib; first compound 8 µM) | relative viability (5-Fluorouracil + AZD7762; first compound 0.02 µM) | relative viability (5-Fluorouracil + AZD7762; first compound 0.2 µM) | relative viability (5-Fluorouracil + AZD7762; first compound 0.6325 µM) | relative viability (5-Fluorouracil + AZD7762; first compound 2 µM) | relative viability ([1]; first compound 0.005 µM) | relative viability ([1]; first compound 0.01581 µM) | relative viability ([1]; first compound 0.05 µM) | relative viability ([1]; first compound 0.1581 µM) | relative viability ([1]; first compound 0.5 µM) | relative viability ([2]; first compound 0.02 µM) | relative viability ([2]; first compound 0.2 µM) | relative viability ([2]; first compound 0.6325 µM) | relative viability ([2]; first compound 2 µM)
1 | NCI-H1944 | 0.745 | 0.883 | 0.754 | 0.853 | 0.856 | 0.475 | 0.199 | 0.106 | 0.0961 | 0.255 | 0.21 | 0.206 | 0.161 | 0.155 | 0.926 | 0.862 | 0.331 | 0.24
2 | NCI-H2085 | 1.02 | 0.963 | 0.935 | 1.02 | 0.922 | 0.938 | 0.935 | 0.837 | 0.644 | 0.721 | 0.32 | 0.355 | 0.24 |  | 0.972 | 1.14 | 1.08 | 0.875
3 | NCI-H2347 | 1.22 | 1.05 | 0.938 | 1.04 | 1.17 | 0.63 | 0.45 | 0.339 | 0.343 | 0.514 | 0.357 | 0.196 | 0.268 | 0.219 | 0.638 | 0.65 | 0.369 | 0.354
4 | 201T | 0.967 | 1.04 | 1.02 | 0.999 | 1.02 | 0.51 | 0.264 | 0.197 | 0.217 | 1.06 |  | 0.758 | 0.373 | 0.31 | 1.18 | 1.01 | 0.543 | 0.42
5 | NCI-H1755 | 1.17 | 1.06 | 0.874 | 0.935 | 1 | 0.4 | 0.31 | 0.285 | 0.28 | 0.474 | 0.311 | 0.207 | 0.184 | 0.219 | 0.982 | 0.757 | 0.291 | 0.198
6 | NCI-H647 | 1.43 | 1.27 | 0.718 | 1.15 | 1.23 | 0.448 | 0.588 | 0.402 | 0.333 | 0.201 | 0.157 | 0.0667 | 0.0489 | 0.061 | 1.24 | 1.06 | 1.09 | 0.729
7 | NCI-H1355 | 0.912 | 0.945 | 0.784 | 0.842 | 0.854 | 0.673 | 0.37 | 0.231 | 0.198 | 0.577 | 0.286 | 0.252 | 0.188 | 0.151 | 0.699 | 0.651 | 0.353 | 0.241
8 | NCI-H1975 | 0.73 | 0.757 |  | 0.674 | 0.694 |  | 0.596 | 0.32 | 0.28 | 0.363 | 0.205 | 0.128 | 0.0804 | 0.0788 | 1.11 | 1.1 | 0.514 | 0.261
9 | BEN | 1.09 | 1.22 | 0.831 | 1 | 1.15 | 0.791 | 0.804 | 0.606 | 0.679 | 0.587 | 0.743 | 0.484 | 0.434 | 0.325 | 0.0616 | 0.276 | 0.0857 | 0.0672
